Measured values taken from publication PMC7688903 (Frontiers in Microbiology, 2020).
Values after ≈ are worked out from the molar mass of the structure shown. Marks after values point to notes of the source that are not given here. Where a SMILES comes first, the peptide text is derived from it. [ ]: non-standard residue; d: D form. hArg = N=C(N)NCCCC[C@H](N)C(=O)O; 2Thi = N[C@@H](Cc1cccs1)C(=O)O; Dab = NCC[C@H](N)C(=O)O; Dap = NC[C@H](N)C(=O)O

What was measured:
[1] = tested on: proteases secreted by S. aureus ATCC 25923; assay: in vitro; conditions: S. aureus ATCC 25923 culture supernatant, pH 8
Outline: (§1)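 Cell-free culture supernatants (overnight, 37°C; MH broth for bacteria, 2% tryptone/2% dextrose for yeast) were centrifuged, adjusted to pH 8.0 and 0.22 μm filtered. Peptides at 0.5 mg/mL were incubated in supernatant 24 h at 37°C; remaining intact peptide measured by RP-HPLC, with peptide-free supernatant as negative control.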

[2] = tested on: proteases secreted by C. albicans ATCC 10231; assay: in vitro; conditions: C. albicans ATCC 10231 culture supernatant, pH 8
Outline: as §1

[3] = tested on: S. aureus ATCC 25923; assay: microbe, parasite or virus in culture; assay type: cell-based, Staphylococcus aureus; conditions: ATCC 25923, 20 h
Outline: (§2)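 Inocula were set to 0.5 McFarland and diluted to ~5 × 10^5 CFU/mL (bacteria, MH broth) or 0.5 × 10^3 to 2.5 × 10^3 CFU/mL (yeast, RPMI 1640). Peptide twofold dilutions were added, plates incubated 20 h at 37°C or 48 h at 35°C, then scored by eye.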

[4] = tested on: C. albicans ATCC 10231; assay: microbe, parasite or virus in culture; assay type: cell-based, Candida albicans; conditions: ATCC 10231, 48 h
Outline: as §2

[5] = tested on: A. baumannii ATCC 19606; assay type: cell-based, Acinetobacter baumannii; conditions: ATCC 19606, 20 h
Outline: as §2

[6] = tested on: carbapenem-resistant A. baumannii (CRAB) SIPI-025; assay type: cell-based, Acinetobacter baumannii; conditions: carbapenem-resistant (CRAB) SIPI-025, 20 h
Outline: as §2

[7] = tested on: carbapenem-resistant P. aeruginosa (CRPA) SIPI-012; assay type: cell-based, Pseudomonas aeruginosa; conditions: carbapenem-resistant (CRPA) SIPI-012, 20 h
Outline: as §2

[8] = tested on: P. aeruginosa ATCC 27853; assay type: cell-based, Pseudomonas aeruginosa; conditions: ATCC 27853, 20 h
Outline: as §2

[9] = tested on: RAW 264.7 cells; assay: Cell viability assay (MTT); assay type: cell-based, mouse; conditions: 1–128 μM peptide in DMEM with 4% FBS, 42 h, 595 nm, triplicate
Outline: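 RAW 264.7 cells (1 × 10^4/well, DMEM + 10% FBS) grown overnight to 80% confluency, then exposed to peptides at 1–128 μM in DMEM with 4% FBS for 42 h at 37 °C. MTT read at 595 nm; viability relative to medium-only controls, triplicate, IC50 as 50% loss of viability.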

[10] = tested on: human erythrocytes; assay: Hemolytic activity assay; assay type: cell-based; conditions: human RBC in PB, 37°C, 1 h, OD420, total lysis control 0.1% SDS, three technical replicates
Outline: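 Washed RBCs from a healthy volunteer were incubated with peptides at 32–128 μM for 1 h at 37°C in PB. Hemoglobin release into the supernatant was read as OD420 against total lysis with 0.1% SDS, in three technical replicates.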

[11] = tested on: E. coli ATCC 25922; assay type: cell-based, Escherichia coli; conditions: ATCC 25922, 20 h
Outline: as §2

[12] = tested on: proteases secreted by A. baumannii ATCC 19606; assay: in vitro; conditions: A. baumannii ATCC 19606 culture supernatant, pH 8
Outline: as §1

[13] = tested on: human plasma proteases; assay: in vitro
Protocol: The peptides were mixed with plasma from healthy volunteers to a final concentration of 0.1 mg/mL and incubated at 37°C. Aliquots (20 or 40 μL) were removed after 0, 2, 4, 6, 8, 12, 24, and 36 h, mixed with 0.05% TFA to a final concentration of 0.01 mg/mL, and incubated on ice for 10 min. After centrifugation (12,000 × g, 5 min), the supernatant was stored at −20°C. The samples were analyzed as described in section “Hydrophobicity” and quantified as described in section “Stability Toward Tryptic Degradation.” All stability tests were performed at least in triplicate. The identities of the metabolites after 12 h of degradation by plasma proteases were determined by LC-MS on a Waters Acquity UPLC-QDa system.

[14] = tested on: proteases secreted by P. aeruginosa ATCC 27853; assay: in vitro; conditions: P. aeruginosa ATCC 27853 culture supernatant, pH 8
Outline: as §1

SMILES	remaining at 24 h, 0.5 mg/mL ([1]; Staphylococcus aureus)	remaining at 24 h, 0.5 mg/mL ([2]; Candida albicans)	MIC [3]	MIC [4]	MIC [5]	MIC [6]	MIC [7]	MIC [8]	IC50 [9]	Hemolysis rate (%) ([10]; 64 μM)	Hemolysis rate (%) ([10]; 128 μM)	MIC [11]	remaining at 24 h, 0.5 mg/mL ([12]; Acinetobacter baumannii)	metabolised at 2 h, 0.1 mg/mL [13]	metabolised at 4 h, 0.1 mg/mL [13]	remaining at 24 h, 0.5 mg/mL [12]	remaining at 24 h, 0.5 mg/mL [1]	remaining at 24 h, 0.5 mg/mL [14]	remaining at 24 h, 0.5 mg/mL [2]
CC(C)C[C@H](NC(=O)[C@H](Cc1ccc(O)cc1)NC(=O)[C@H](CCN)NC(=O)[C@H](CC(C)C)NC(=O)[C@H](CC(C)C)NC(=O)[C@H](CCN)NC(=O)[C@H](CCN)NC(=O)[C@H](Cc1ccccc1)NC(=O)[C@H](CC(C)C)NC(=O)[C@H](CCCCNC(=N)N)NC(=O)[C@@H](N)CCN)C(=O)N[C@@H](CCCCNC(=N)N)C(=O)N[C@@H](CCN)C(=O)N[C@@H](Cc1ccccc1)C(N)=O [UP13] (H-[Dab][hArg]LF[Dab][Dab]LL[Dab]YL[hArg][Dab]F-NH2)	78.5 ± 3.39%	34 ± 6.12%	0.5 µg/mL (≈ 0.283 µM)	4 µg/mL (≈ 2.26 µM)	2 µg/mL (≈ 1.13 µM)	2 µg/mL (≈ 1.13 µM)	4 µg/mL (≈ 2.26 µM)	2 µg/mL (≈ 1.13 µM)	21.7 ± 4.14 µM	41.03 ± 1.38%	∼100.00* %	2 µg/mL (≈ 1.13 µM)							
CC(C)C[C@H](NC(=O)[C@H](Cc1ccc(O)cc1)NC(=O)[C@H](CCN)NC(=O)[C@H](CC(C)C)NC(=O)[C@H](CC(C)C)NC(=O)[C@H](CCN)NC(=O)[C@H](CN)NC(=O)[C@H](Cc1cccs1)NC(=O)[C@H](CC(C)C)NC(=O)[C@H](CCCNC(=N)N)NC(=O)[C@@H](N)CCN)C(=O)N[C@@H](CCCCNC(=N)N)C(=O)N[C@@H](CCN)C(=O)N[C@@H](Cc1ccccc1)C(N)=O [UP15] (H-[Dab]RL[2Thi][Dap][Dab]LL[Dab]YL[hArg][Dab]F-NH2)	54.6 ± 4.19%	21.1 ± 5.28%	1 µg/mL (≈ 0.573 µM)	4 µg/mL (≈ 2.29 µM)	2 µg/mL (≈ 1.15 µM)	2 µg/mL (≈ 1.15 µM)	4 µg/mL (≈ 2.29 µM)	1 µg/mL (≈ 0.573 µM)	28.7 ± 3.52 µM	54.16 ± 2.02 %	97.86 ± 3.07 %	2 µg/mL (≈ 1.15 µM)							
CC(C)C[C@H](NC(=O)[C@H](Cc1ccc(O)cc1)NC(=O)[C@H](CCCCN)NC(=O)[C@H](CC(C)C)NC(=O)[C@H](CC(C)C)NC(=O)[C@@H](CCCCN)NC(=O)[C@@H](CCCCN)NC(=O)[C@H](Cc1ccccc1)NC(=O)[C@H](CC(C)C)NC(=O)[C@@H](CCCNC(=N)N)NC(=O)[C@H](N)CCCCN)C(=O)N[C@@H](CCCNC(=N)N)C(=O)N[C@H](CCCCN)C(=O)N[C@@H](Cc1ccccc1)C(N)=O [DP05] (H-[dK][dR]LF[dK][dK]LLKYLR[dK]F-NH2)	66.7 ± 5.9%		1 µg/mL (≈ 0.532 µM)	2 µg/mL (≈ 1.06 µM)	1 µg/mL (≈ 0.532 µM)	2 µg/mL (≈ 1.06 µM)	8 µg/mL (≈ 4.25 µM)	1 µg/mL (≈ 0.532 µM)	32.7 ± 3.44 µM	30.09 ± 1.56%	45.07 ± 2.93%	2 µg/mL (≈ 1.06 µM)	31.7 ± 9%	> 40%	> 50%				
CC(C)C[C@H](NC(=O)[C@H](Cc1ccc(O)cc1)NC(=O)[C@H](CCN)NC(=O)[C@H](CC(C)C)NC(=O)[C@H](CC(C)C)NC(=O)[C@H](CN)NC(=O)[C@H](CN)NC(=O)[C@H](Cc1ccccc1)NC(=O)[C@H](CC(C)C)NC(=O)[C@H](CCCCNC(=N)N)NC(=O)[C@@H](N)CN)C(=O)N[C@@H](CCCCNC(=N)N)C(=O)N[C@@H](CCN)C(=O)N[C@@H](Cc1ccccc1)C(N)=O [UP14] (H-[Dap][hArg]LF[Dap][Dap]LL[Dab]YL[hArg][Dab]F-NH2)			0.5 µg/mL (≈ 0.29 µM)	4 µg/mL (≈ 2.32 µM)	4 µg/mL (≈ 2.32 µM)	4 µg/mL (≈ 2.32 µM)	8 µg/mL (≈ 4.63 µM)	2 µg/mL (≈ 1.16 µM)	14 ± 2.67 µM	66.51 ± 3.14 %	74.68 ± 1.34 %	2 µg/mL (≈ 1.16 µM)				12.9 ± 1.48%	57.3 ± 6.54%	27.6 ± 6.76%	
CC(C)C[C@H](NC(=O)[C@H](Cc1ccc(O)cc1)NC(=O)[C@H](CCN)NC(=O)[C@H](CC(C)C)NC(=O)[C@H](CC(C)C)NC(=O)[C@H](CCN)NC(=O)[C@H](CCN)NC(=O)[C@H](Cc1ccccc1)NC(=O)[C@H](CC(C)C)NC(=O)[C@H](CCCCNC(=N)N)NC(=O)[C@@H](N)CCN)C(=O)N[C@@H](CCCNC(=N)N)C(=O)N[C@@H](CCN)C(=O)N[C@@H](Cc1ccccc1)C(N)=O [UP12] (H-[Dab][hArg]LF[Dab][Dab]LL[Dab]YLR[Dab]F-NH2)			1 µg/mL (≈ 0.57 µM)	4 µg/mL (≈ 2.28 µM)	2 µg/mL (≈ 1.14 µM)	4 µg/mL (≈ 2.28 µM)	4 µg/mL (≈ 2.28 µM)	2 µg/mL (≈ 1.14 µM)	21.2 ± 2.42 µM	45.13 ± 1.95 %	∼100.00* %	2 µg/mL (≈ 1.14 µM)					69.5 ± 5.97%	20.6 ± 4.3%	37.7 ± 5.24%
